This note sets out measurements from patent publication US4895844A, “Indole alkaloid compositions and their methods of use” (Harbor Branch Oceanographic Institution, Inc., priority 1989, dated 1990).

In brackets after ≈: the same amount, converted by molar mass.

What all share (assay type): cell-based
Test [1] concerns A-549 human lung carcinoma cells. In words: Human tumor cell line assay, A-549 (lung). The note with it: 120 hours, read-out: Activity at prescribed doses. How it is done:
(§1) HUMAN TUMOR CELL LINE ASSAY
(§2) Maintenance of Cell Line HCT-8 human colon tumor cells are grown in RPMl 1640 medium (GIBCO). A-549 human lung carcinoma cells and MD-AMB-231 human breast cancer cells are cultured in Dulbecco medium (Biologos, Inc.). All media are supplemented with 10% fetal bovine serum and contain 50 ug/ml gentamycin. All human tumor cell lines are incubated at 5% CO2 at 37° and subcultured once a week. The seeding levels are 350,000 MCF-7 cells, 60,000 HCT-8 cells and 300,000 A-549 cells per T-25 Flask. Vinblastine is used as a positive control.
(§3) 2. Incubate in a CO2 -incubator for 48 hours.
(§4) 3. Add composition to each well and incubate for an additional 120 hours.
(§5) 4. Discard medium and stain with methylene blue (HCT-8) or crystal violet (A-549 and MD-AMB-231).
(§6) 5. Compare cell density of drug-treated well with that of the control (no drug added) as follows: ND (not detectable), >90%; 1+, 75-90%; 2+, 50-74%; 3+, 25-49%, 4+, >25% of control growth.

The test system of test [2] is P388 mouse leukemia cells. In words: P388 mouse leukemia cell assay. The note with it: 48 hours. The procedure: P388 MOUSE LEUKEMIA CELL ASSAY
P388 mouse leukemia cells are grown in Dulbecco MEM medium with 10% horse serum, 4 mM glutamine, and 20 ug/ml gentamycin (Biologos, Inc.). Cells are incubated in 10% CO2 and subcultured 2 times per week.
1. Add composition to each well of a 24-well plate or tube and allow solvent to evaporate to dryness.
2. Add 2 ml (1.2×10^5) cells to each well or tube and mix.
3. Incubate in 10% CO2 at 37° for 48 hours.
4. Read plates with an inverted microscope, scoring activity from 1+ to 4+ as follows: ND (not detectable), >90%; 1+, 75-90%; 2+, 50-74%; 3+, 25-49%; 4+, <25% of control growth. Alternatively, the activity may be designated as IC50 concentration which is the concentration of composition required to inhibit 50% of cell growth on the plate.
Cell counts are performed on each tube and results are reported as percent of control.

The subject of test [3] is HCT-8 human colon tumor cells. In words: Human tumor cell line assay, HCT-8 (colon). The note with it: 120 hours, read-out: Activity at prescribed doses. The procedure:
as §1, §2, §3, §4, §5, §6

The test system of test [4] is MD-AMB-231 human breast cancer cells. Nature of the test: Human tumor cell line assay, MD-AMB-231 (mammary). The note with it: 120 hours, read-out: Activity at prescribed doses. The procedure:
as §1, §2, §3, §4, §5, §6

As to `CN1CC(c2c[nH]c3c(Br)c(Br)cc(O)c23)NCC1c1c[nH]c2cc(Br)ccc12` (stereo not shown) [Biemnidin (1), biemnidin], the activity at 1 µg/mL in test [1] (A549, A-549, 1 μg/ml) was over 90%; in test [3] (HCT-8, 1 μg/ml), over 90%; in test [4] (MDA-MB-231, MD-AMB-231, 1 μg/ml) it was over 90%. The activity at 10 µg/mL is over 25% in test [1] (A549, A-549, 10 μg/ml); over 25% in test [3] (HCT-8, 10 μg/ml); over 25% in test [4] (MDA-MB-231, MD-AMB-231, 10 μg/ml). Moreover, the activity at 50 µg/mL was over 25% in test [1] (A549, A-549, 50 μg/ml); over 25% in test [3] (HCT-8, 50 μg/ml); over 25% in test [4] (MDA-MB-231, MD-AMB-231, 50 μg/ml). In test [2], half-maximal inhibition (IC50) required 15 µg/mL (≈ 25.7 µM).
